Where “and” joins values, the source holds several entries; their conditions need not be identical. Equal entries are not always repeated. Toxic doses and inconclusive results are not listed.
Test system: P388 leukemia ip, CD2F1 mice, survival T/C
Assay: NCI In Vivo Anticancer Drug Screen. Data for tumor model P388 Leukemia (intraperitoneal) in CD2F1 (CDF1) mice
Conditions: endpoint: median survival time, higher = longer survival
Outline: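 Mice carrying the transplanted tumor received test compound or vehicle. Survival was recorded in each group, and the value is the treated-group measurement divided by that of the vehicle-treated control group.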

[1] = dose: 25.0 mg/kg/injection, schedule: Q01DX009 (ip), vehicle: saline
[2] = dose: 50.0 mg/kg/injection, schedule: Q01DX009 (ip), vehicle: saline
[3] = dose: 200.0 mg/kg/injection, schedule: Q01DX009 (ip), vehicle: saline
[4] = dose: 50.0 mg/kg/injection, schedule: Q01DX005 (ip), vehicle: saline with Tween-80
[5] = dose: 100.0 mg/kg/injection, schedule: Q01DX005 (ip), vehicle: saline with Tween-80
[6] = dose: 200.0 mg/kg/injection, schedule: Q01DX005 (ip), vehicle: saline with Tween-80
[7] = dose: 200.0 mg/kg/injection, schedule: Q01DX009 (ip), vehicle: distilled water + Tween-80
[8] = dose: 400.0 mg/kg/injection, schedule: Q01DX009 (ip), vehicle: distilled water + Tween-80
[9] = dose: 50.0 mg/kg/injection, schedule: Q01DX009 (ip), vehicle: saline with Tween-80
[10] = dose: 50.0 mg/kg/injection, schedule: Q01DX009 (ip), vehicle: Klucel (hydroxypropylcellulose) (HPC)
[11] = dose: 100.0 mg/kg/injection, schedule: Q01DX009 (ip), vehicle: Klucel (hydroxypropylcellulose) (HPC)

With `CCCCc1ccc2nc(C)cc(N/N=C/c3ccc(OC)c4ccccc34)c2c1` the T/C (dose: 12.5 mg/kg/injection, schedule: Q01DX005 (ip), vehicle: Klucel (hydroxypropylcellulose) (HPC)) was 100 % of control, the T/C (dose: 25.0 mg/kg/injection, schedule: Q01DX005 (ip), vehicle: Klucel (hydroxypropylcellulose) (HPC)) was 98 % of control and the T/C (dose: 50.0 mg/kg/injection, schedule: Q01DX005 (ip), vehicle: Klucel (hydroxypropylcellulose) (HPC)) was 87 % of control. For the same molecule, the T/C (dose: 200.0 mg/kg/injection, schedule: Q01DX005 (ip), vehicle: Klucel (hydroxypropylcellulose) (HPC)) was 100 % of control.

`Cc1cc(N=Nc2ccc(N=Nc3ccc(S(=O)(=O)O)cc3)cc2)cc(C(=O)O)c1O` was tested, and the T/C (dose: 12.5 mg/kg/injection, schedule: Q01DX009 (ip), vehicle: saline) was 114 % of control, the T/C [1] was 113 % of control and the T/C [2] was 91 % of control and 96 % of control. The T/C [3] was 93 % of control.

With `CC1=CNC(=O)CC(C)(C)C1` the T/C [4] was 105 % of control, the T/C [5] was 105 % of control and the T/C [6] was 104 % of control.

For `CCOC(=O)/C=C/c1nc(C(=O)OCC)c(C)c(=O)[nH]1`, the T/C (dose: 1.0 mg/kg/injection, schedule: Q01DX009 (ip), vehicle: other) was 120 % of control, the T/C (dose: 2.0 mg/kg/injection, schedule: Q01DX009 (ip), vehicle: other) was 99 % of control and the T/C (dose: 4.0 mg/kg/injection, schedule: Q01DX009 (ip), vehicle: other) was 99 % of control. The T/C (dose: 8.0 mg/kg/injection, schedule: Q01DX009 (ip), vehicle: other) was 107 % of control, the T/C (dose: 16.0 mg/kg/injection, schedule: Q01DX009 (ip), vehicle: other) was 104 % of control and 95 % of control and the T/C (dose: 32.0 mg/kg/injection, schedule: Q01DX009 (ip), vehicle: other) was 95 % of control. The T/C (dose: 64.0 mg/kg/injection, schedule: Q01DX009 (ip), vehicle: other) was 92 % of control, the T/C (dose: 128.0 mg/kg/injection, schedule: Q01DX009 (ip), vehicle: other) was 95 % of control and the T/C [7] was 99 % of control. The T/C (dose: 256.0 mg/kg/injection, schedule: Q01DX009 (ip), vehicle: other) was 113 % of control and the T/C [8] was 100 % of control.

For `CC(=O)N1C(=O)C2C3C=CC(C3)C2C(=O)N1C(C)=O` (stereo not given), the T/C (dose: 6.25 mg/kg/injection, schedule: Q01DX009 (ip), vehicle: saline with Tween-80) was 96 % of control, the T/C (dose: 12.5 mg/kg/injection, schedule: Q01DX009 (ip), vehicle: saline with Tween-80) was 97 % of control and the T/C (dose: 25.0 mg/kg/injection, schedule: Q01DX009 (ip), vehicle: saline with Tween-80) was 102 % of control. The T/C [9] was 106 % of control and 86 % of control.

With `COc1cccc2c1C(=N)c1c(O)c3c(c(O)c1C2=O)C[C@@](O)(C(=O)CO)C[C@@H]3OC1CC(N)C(O)C(C)O1` (stereo not given in full) the T/C (dose: 1.56 mg/kg/injection, schedule: Q04DX003 (ip), vehicle: water) was 115 % of control, the T/C (dose: 3.13 mg/kg/injection, schedule: Q04DX003 (ip), vehicle: water) was 118 % of control and the T/C (dose: 6.25 mg/kg/injection, schedule: Q04DX003 (ip), vehicle: water) was 122 % of control. The T/C (dose: 25.0 mg/kg/injection, schedule: Q04DX003 (ip), vehicle: water) was 155 % of control and 163 % of control, the T/C (dose: 50.0 mg/kg/injection, schedule: Q04DX003 (ip), vehicle: water) was 173 % of control and 188 % of control and the T/C (dose: 100.0 mg/kg/injection, schedule: Q04DX003 (ip), vehicle: water) was 194 % of control and 217 % of control. The T/C (dose: 150.0 mg/kg/injection, schedule: Q04DX003 (ip), vehicle: water) was 165 % of control.

For `[Mn+2].[NH-]CC(=O)NC(Cc1ccccc1)C(=O)O.[NH-]CC(=O)NC(Cc1ccccc1)C(=O)O` (stereo not given), the T/C (dose: 100.0 mg/kg/injection, schedule: Q04DX003 (ip), vehicle: saline) was 113 % of control and the T/C (dose: 200.0 mg/kg/injection, schedule: Q04DX003 (ip), vehicle: saline) was 116 % of control.

`Cc1ccc(N2C(=O)CC3(CCCC3)C2=O)cc1C` was tested, and the T/C (dose: 100.0 mg/kg/injection, schedule: Q04DX003 (ip), vehicle: Klucel (hydroxypropylcellulose) (HPC)) was 100 % of control, the T/C (dose: 200.0 mg/kg/injection, schedule: Q04DX003 (ip), vehicle: Klucel (hydroxypropylcellulose) (HPC)) was 98 % of control and the T/C (dose: 400.0 mg/kg/injection, schedule: Q04DX003 (ip), vehicle: Klucel (hydroxypropylcellulose) (HPC)) was 98 % of control.

For `C/C(=N/NC(=S)N1CC2CCC(CC2)C1)c1cnccn1`, the T/C (dose: 6.25 mg/kg/injection, schedule: Q01DX005 (ip), vehicle: saline with Tween-80) was 102 % of control and the T/C (dose: 12.5 mg/kg/injection, schedule: Q01DX005 (ip), vehicle: saline with Tween-80) was 117 % of control.

With `COc1cccc2c1C(=O)c1c(O)c3c(c(O)c1C2=O)C[C@@](O)(/C(C)=N/NS(C)(=O)=O)C[C@@H]3OC1CC(N)C(O)C(C)O1` (stereo not given in full) the T/C (dose: 3.13 mg/kg/injection, schedule: Q01DX009 (ip), vehicle: water) was 157 % of control, the T/C (dose: 6.25 mg/kg/injection, schedule: Q01DX009 (ip), vehicle: water) was 164 % of control and 166 % of control and the T/C (dose: 12.5 mg/kg/injection, schedule: Q01DX009 (ip), vehicle: water) was 183 % of control and 187 % of control. For the same molecule, the T/C [1] was 166 % of control, the T/C (dose: 25.0 mg/kg/injection, schedule: Q01DX009 (ip), vehicle: water) was 117 % of control and 201 % of control and the T/C [2] was 193 % of control. The T/C (dose: 50.0 mg/kg/injection, schedule: Q01DX009 (ip), vehicle: water) was 99 % of control, the T/C (dose: 100.0 mg/kg/injection, schedule: Q01DX009 (ip), vehicle: saline) was 283 % of control and the T/C [3] was 108 % of control.

`CCCCN=C(N)NN=C(c1ccc(C)cc1)c1ccc(C)cc1` was tested, and the T/C (dose: 25.0 mg/kg/injection, schedule: Q04DX002 (ip), vehicle: saline with Tween-80) was 102 % of control and the T/C (dose: 50.0 mg/kg/injection, schedule: Q04DX002 (ip), vehicle: saline with Tween-80) was 99 % of control.

In the case of `CCOC(=O)Nc1cc(OC)cc2ccc(C)nc12`, the T/C (dose: 12.5 mg/kg/injection, schedule: Q01DX009 (ip), vehicle: other) is reported as 88 % of control, the T/C (dose: 50.0 mg/kg/injection, schedule: Q01DX009 (ip), vehicle: other) is reported as 98 % of control and the T/C (dose: 100.0 mg/kg/injection, schedule: Q01DX009 (ip), vehicle: other) is reported as 99 % of control. The T/C (dose: 200.0 mg/kg/injection, schedule: Q01DX009 (ip), vehicle: other) was 98 % of control.

With `CCOC(=O)c1ccc(NC(=S)Nc2nccs2)cc1` the T/C (dose: 25.0 mg/kg/injection, schedule: Q01DX009 (ip), vehicle: distilled water + Tween-80) was 99 % of control, the T/C (dose: 50.0 mg/kg/injection, schedule: Q01DX009 (ip), vehicle: distilled water + Tween-80) was 101 % of control and the T/C (dose: 100.0 mg/kg/injection, schedule: Q01DX009 (ip), vehicle: distilled water + Tween-80) was 95 % of control. For the same molecule, the T/C [7] was 92 % of control and the T/C [8] was 92 % of control.

With `CN(/C=C/C=C/C=N/O)c1ccccc1` the T/C (dose: 50.0 mg/kg/injection, schedule: Q01DX001 (ip), vehicle: Klucel (hydroxypropylcellulose) (HPC)) was 104 % of control, the T/C (dose: 100.0 mg/kg/injection, schedule: Q01DX001 (ip), vehicle: Klucel (hydroxypropylcellulose) (HPC)) was 100 % of control and the T/C (dose: 200.0 mg/kg/injection, schedule: Q01DX001 (ip), vehicle: Klucel (hydroxypropylcellulose) (HPC)) was 99 % of control.

For `FC(F)(F)c1ccc(-c2nn[nH]n2)cc1`, the T/C (dose: 60.0 mg/kg/injection, schedule: Q01DX005 (ip), vehicle: Klucel (hydroxypropylcellulose) (HPC)) was 107 % of control and the T/C (dose: 120.0 mg/kg/injection, schedule: Q01DX005 (ip), vehicle: Klucel (hydroxypropylcellulose) (HPC)) was 101 % of control.

`Cc1cn(CCCn2cnc3c(N)ncnc32)c(=O)[nH]c1=O` was tested, and the T/C (dose: 60.0 mg/kg/injection, schedule: Q01DX005 (ip), vehicle: saline with Tween-80) was 95 % of control, the T/C (dose: 120.0 mg/kg/injection, schedule: Q01DX005 (ip), vehicle: saline with Tween-80) was 98 % of control and the T/C (dose: 240.0 mg/kg/injection, schedule: Q01DX005 (ip), vehicle: saline with Tween-80) was 107 % of control.

With `c1ccc2c(c1)SP(P1Sc3ccccc3S1)S2` the T/C [10] was 100 % of control and the T/C [11] was 107 % of control.

In the case of `Cc1cc(C)nc(NS(=O)(=O)c2ccc(Nc3c4ccc(Cl)cc4nc4ncccc34)cc2)n1`, the T/C [4] is reported as 110 % of control, the T/C [5] is reported as 106 % of control and the T/C [6] is reported as 116 % of control.

In the case of `CCCC(NC(=O)c1ccccc1)C(=O)O` (stereo not given), the T/C [9] is reported as 100 % of control, the T/C (dose: 100.0 mg/kg/injection, schedule: Q01DX009 (ip), vehicle: saline with Tween-80) is reported as 99 % of control and the T/C (dose: 200.0 mg/kg/injection, schedule: Q01DX009 (ip), vehicle: saline with Tween-80) is reported as 99 % of control.

`Nc1nncc(-c2ccccc2)n1` was tested, and the T/C (dose: 25.0 mg/kg/injection, schedule: Q01DX009 (ip), vehicle: Klucel (hydroxypropylcellulose) (HPC)) was 97 % of control, the T/C [10] was 97 % of control and the T/C [11] was 96 % of control. For the same molecule, the T/C (dose: 200.0 mg/kg/injection, schedule: Q01DX009 (ip), vehicle: Klucel (hydroxypropylcellulose) (HPC)) was 110 % of control.

From PubChem BioAssay AID330 (DTP/NCI, 2004)
